Laboratory results: ChEMBL document CHEMBL3044799, “Biological activity of the succinate dehydrogenase inhibitor fluopyram against Botrytis cinerea and fungal baseline sensitivity” (Pest Manag Sci, 2012)
≈ marks a conversion by molar mass, not a printed value.

Columns and labels:
[1] = system: Botrytis cinerea; test: Curative antifungal activity against Botryotinia fuckeliana inoculated in strawberry fruit assessed as disease control efficacy at 300 ug AI/ml applied 48 hr post-inoculation relative to control; format: functional
[2] = system: Botrytis cinerea; test: Curative antifungal activity against Botryotinia fuckeliana inoculated in strawberry fruit assessed as disease control efficacy at 300 ug AI/ml applied 24 hr post-inoculation relative to control; format: functional
[3] = system: Botrytis cinerea; test: Antifungal activity against Botryotinia fuckeliana inoculated in strawberry fruit; format: functional, organism-based
[4] = system: Botrytis cinerea; test: Protective antifungal activity against Botryotinia fuckeliana inoculated in fungicide-applied strawberry fruit assessed as disease severity measuring lesion diameter at 300 ug AI/ml applied 96 hr prior-inoculation; format: functional
[5] = system: Botrytis cinerea; test: Protective antifungal activity against Botryotinia fuckeliana inoculated in fungicide-applied strawberry fruit assessed as disease control efficacy at 300 ug AI/ml applied 24 hr prior inoculation relative to control; format: functional
[6] = system: Botrytis cinerea; test: Protective antifungal activity against Botryotinia fuckeliana inoculated in fungicide-applied strawberry fruit assessed as disease control efficacy at 300 ug AI/ml applied 96 hr prior-inoculation relative to control; format: functional
[7] = system: Botrytis cinerea; test: Protective antifungal activity against Botryotinia fuckeliana inoculated in fungicide-applied strawberry fruit assessed as disease severity measuring lesion diameter at 300 ug AI/ml applied 24 hr prior inoculation; format: functional
[8] = system: Botrytis cinerea; test: Protective antifungal activity against Botryotinia fuckeliana inoculated in fungicide-applied strawberry fruit assessed as disease control efficacy at 300 ug AI/ml applied 48 hr prior inoculation relative to control; format: functional
[9] = system: Botrytis cinerea; test: Curative antifungal activity against Botryotinia fuckeliana inoculated in strawberry fruit assessed as disease severity measuring lesion diameter at 300 ug AI/ml applied 96 hr post-inoculation; format: functional
[10] = system: Botrytis cinerea; test: Curative antifungal activity against Botryotinia fuckeliana inoculated in strawberry fruit assessed as disease severity measuring lesion diameter at 300 ug AI/ml applied 48 hr post-inoculation; format: functional
[11] = system: Botrytis cinerea; test: Curative antifungal activity against Botryotinia fuckeliana inoculated in strawberry fruit assessed as disease severity measuring lesion diameter at 300 ug AI/ml applied 24 hr post-inoculation; format: functional
[12] = system: Botrytis cinerea; test: Curative antifungal activity against Botryotinia fuckeliana inoculated in strawberry fruit assessed as disease control efficacy at 300 ug AI/ml applied 96 hr post-inoculation relative to control; format: functional
[13] = system: Botrytis cinerea; test: Protective antifungal activity against Botryotinia fuckeliana inoculated in fungicide-applied strawberry fruit assessed as disease severity measuring lesion diameter at 300 ug AI/ml applied 48 hr prior inoculation; format: functional
[14] = system: Botrytis cinerea; test: Curative antifungal activity against Botryotinia fuckeliana inoculated in strawberry fruit assessed as disease control efficacy at 100 ug AI/ml applied 96 hr post-inoculation relative to control; format: functional
[15] = system: Botrytis cinerea; test: Protective antifungal activity against Botryotinia fuckeliana inoculated in fungicide-applied strawberry fruit assessed as disease severity measuring lesion diameter at 100 ug AI/ml applied 96 hr prior-inoculation; format: functional
[16] = system: Botrytis cinerea; test: Protective antifungal activity against Botryotinia fuckeliana inoculated in fungicide-applied strawberry fruit assessed as disease control efficacy at 100 ug AI/ml applied 96 hr prior-inoculation relative to control; format: functional
[17] = system: Botrytis cinerea; test: Protective antifungal activity against Botryotinia fuckeliana inoculated in fungicide-applied strawberry fruit assessed as disease severity measuring lesion diameter at 100 ug AI/ml applied 48 hr prior inoculation; format: functional
[18] = system: Botrytis cinerea; test: Curative antifungal activity against Botryotinia fuckeliana inoculated in strawberry fruit assessed as disease control efficacy at 100 ug AI/ml applied 48 hr post-inoculation relative to control; format: functional
[19] = system: Botrytis cinerea; test: Protective antifungal activity against Botryotinia fuckeliana inoculated in fungicide-applied strawberry fruit assessed as disease severity measuring lesion diameter at 100 ug AI/ml applied 24 hr prior inoculation; format: functional
[20] = system: Botrytis cinerea; test: Curative antifungal activity against Botryotinia fuckeliana inoculated in strawberry fruit assessed as disease severity measuring lesion diameter at 100 ug AI/ml applied 24 hr post-inoculation; format: functional
[21] = system: Botrytis cinerea; test: Curative antifungal activity against Botryotinia fuckeliana inoculated in strawberry fruit assessed as disease control efficacy at 100 ug AI/ml applied 24 hr post-inoculation relative to control; format: functional
[22] = system: Botrytis cinerea; test: Curative antifungal activity against Botryotinia fuckeliana inoculated in strawberry fruit assessed as disease severity measuring lesion diameter at 100 ug AI/ml applied 96 hr post-inoculation; format: functional
[23] = system: Botrytis cinerea; test: Curative antifungal activity against Botryotinia fuckeliana inoculated in strawberry fruit assessed as disease severity measuring lesion diameter at 100 ug AI/ml applied 48 hr post-inoculation; format: functional
[24] = system: Botrytis cinerea; test: Protective antifungal activity against Botryotinia fuckeliana inoculated in fungicide-applied strawberry fruit assessed as disease control efficacy at 100 ug AI/ml applied 48 hr prior inoculation relative to control; format: functional
[25] = system: Botrytis cinerea; test: Protective antifungal activity against Botryotinia fuckeliana inoculated in fungicide-applied strawberry fruit assessed as disease control efficacy at 100 ug AI/ml applied 24 hr prior inoculation relative to control; format: functional

**Q.** O=C(Nc1ccccc1-c1ccc(Cl)cc1)c1cccnc1Cl [BOSCALID] was tested. Which Efficacy [1] did it give?
**A.** 94.1%

**Q.** And the Efficacy [2]?
**A.** 74.7%

**Q.** And the EC50 [3]?
**A.** 0.09 µg/mL (≈ 0.262 µM)

**Q.** What about the Activity [4] of the same molecule?
**A.** 3.4 mm

**Q.** What about the Efficacy [5] of the same molecule?
**A.** 91.7%

**Q.** And the Efficacy [6]?
**A.** 81.8%

**Q.** What about the Activity [7] of the same molecule?
**A.** 1.5 mm

**Q.** And the Efficacy [8]?
**A.** 84%

**Q.** What about the Activity [9] of the same molecule?
**A.** 13.2 mm

**Q.** And the Activity [10]?
**A.** 1.1 mm

**Q.** What about the Activity [11] of the same molecule?
**A.** 4.7 mm

**Q.** And the Efficacy [12]?
**A.** 29.8%

**Q.** And the Activity [13]?
**A.** 3 mm

**Q.** For COC(=O)Nc1nc2ccccc2[nH]1 [CARBENDAZIM], which EC50 [3] is on record?
**A.** 0.05 µg/mL (≈ 0.262 µM)

**Q.** Which EC50 [3] does the source give for Cc1cc(C2CC2)nc(Nc2ccccc2)n1 [CYPRODINIL] here?
**A.** 0.007 µg/mL (≈ 0.0311 µM)

**Q.** CC1(C(=O)Nc2ccc(O)c(Cl)c2Cl)CCCCC1 [FENHEXAMID] was tested. Which Efficacy [14] did it give?
**A.** 23.2%

**Q.** What about the Activity [15] of the same molecule?
**A.** 1 mm

**Q.** What about the Efficacy [16] of the same molecule?
**A.** 94.4%

**Q.** What about the Activity [17] of the same molecule?
**A.** 0.4 mm

**Q.** What about the EC50 [3] of the same molecule?
**A.** 0.04 µg/mL (≈ 0.132 µM)

**Q.** What about the Efficacy [18] of the same molecule?
**A.** 89.2%

**Q.** And the Activity [19]?
**A.** 0.1 mm

**Q.** What about the Activity [20] of the same molecule?
**A.** 7.2 mm

**Q.** What about the Efficacy [21] of the same molecule?
**A.** 61.4%

**Q.** And the Activity [22]?
**A.** 14.5 mm

**Q.** And the Activity [23]?
**A.** 2 mm

**Q.** And the Efficacy [24]?
**A.** 97.6%

**Q.** What about the Efficacy [25] of the same molecule?
**A.** 99.2%

**Q.** How did the EC50 [3] turn out when N#Cc1c[nH]cc1-c1cccc2c1OC(F)(F)O2 [FLUDIOXONIL] was run?
**A.** 0.003 µg/mL (≈ 0.0121 µM)

**Q.** With CC(C)NC(=O)N1CC(=O)N(c2cc(Cl)cc(Cl)c2)C1=O [IPRODIONE] as the molecule, how does the EC50 [3] read?
**A.** 0.25 µg/mL (≈ 0.757 µM)

**Q.** How did the EC50 [3] turn out when COC(=O)N(OC)c1ccccc1COc1ccn(-c2ccc(Cl)cc2)n1 [PYRACLOSTROBIN] was run?
**A.** 0.01 µg/mL (≈ 0.0258 µM)
